Measurements taken from patent publication US20230241088A1, “COMPOSITION FOR PREVENTING OR TREATING LUNG CANCER COMPRISING ORTHO-TOPOLIN RIBOSIDE AS ACTIVE INGREDIENT” (CHUNG-ANG UNIVERSITY INDUSTRY-ACADEMY COOPERATION FOUNDATION, priority 2022, published 2023).
Where “and” joins values, the source holds several entries; their conditions need not be identical. Equal entries are not always repeated. Where two headings read alike, the source gives them in different places.

Tests used:
H2087 = assay: MTT cell viability assay, H2087; assay type: cell-based, Human; conditions: 48 hours
Experimental: Human NSCLC cell lines A549, H1437, H2087, H522, and HCC827 were obtained from the Korean Cell Line Bank (KCLB, Seoul, Korea). These cells were cultured in RPMI-1640 medium (Gibco, N.Y., USA) supplemented with 10% FBS (Gibco) and 1% penicillin-streptomycin (HyClone Laboratories, Logan, Utah, USA). All cell lines were cultured under standard conditions (5% CO2, humid environment, 37° C.). A549 cells were seeded at a density of 1×10^4 cells/well and H1437, H2087, H522, HCC827, and MRCS cells at a density of 2×10^4 cells/well in 96-well plates and were cultured until cells reach approximately 70-80% confluency. The NSCLC cells were treated with plant hormones for 48 hours. Stock solution of each plant hormone was diluted with culture medium, wherein concentrations of DMSO, water, methanol, and ethanol in the culture medium were below 1% (v/v). The half-maximal inhibitory concentration (IC50) was calculated using CompuSyn software (ComboSyn Inc., Paramus, N.J., USA).
The inhibitory effect of plant hormones and their derivatives was investigated on 5 NSCLC cell lines (A549, H1437, H2087, H522, and HCC827). The NSCLC cells were treated with ABA, Cor, ethephon, GR-24, IAA, KR, MJ, N6b, N6i, oTR, and SS-HCS at concentrations of 0.1, 0.5, 1, 5, 10, 50, and 100 μM. Cell viability and IC50 values for 48 hours were investigated by performing the MTT assay.

[1] = system: NSCLC cell lines (A549, H1437, H2087, H522, and HCC827); assay: GC-MS and nanoESI-MS metabolite and lipid profiling of NSCLC cells; assay type: cell-based, Human
Experimental: The cells were seeded at a density of 2×10^5 cells/mL in a 6-well plate and treated with oTR (10 μM) for 48 hours. The cells were pooled from 3 wells in the 6-well plate and centrifuged at 1,000×g at 4° C. for 2 minutes. The cells were frozen in liquid nitrogen and stored at −70° C. until analysis. The cells were lysed by two freeze-thaw cycles using liquid nitrogen and 37° C. water bath. Protein concentrations were determined using the Bio-Rad protein assay kit (Thermo Scientific, Rockford, Ill.). Bovine serum albumin (BSA) was used as a standard for normalization. The cells were freeze-dried and stored at −70° C. until additional analysis.
(§1) To perform metabolite and lipid analyses of the extracted samples of NSCLC cells and xenograft tumor tissues, GC-MS and nanoESI-MS analyses were conducted according to a previously described method. For quality control (QC), the equal volume of mixture was taken from each sample to be analyzed.
(§2) Raw data files of the lipid analysis (*.raw) were converted into *.mzXML format using the Proteo Wizard MSConvert software. The metabolite and lipid mass spectra were converted using the Expressionist® MSX software (version 2013.0.39, Genedata, Basel, Switzerland) for data processing. The data obtained from NSCLC cells were divided by the peak intensity of the internal standard and total protein content for normalization. The data obtained from the NSCLC xenograft model were divided by the peak intensity of the internal standard for normalization. The data obtained thereby were used for fold-change analysis using the MetaboAnalyst (version 5.0; http://www.metaboanalyst.ca). SPSS software (version 26, IBM, Somers, N.Y.) was used for significance examination for the results, and identification was conducted by Student's t-test and Mann-Whitney test. All data were mean-centered and pretreated to Pareto scaling for principal component analysis (PCA) and orthogonal partial least-squares discriminant analysis (OPLS-DA), performed using the SIMCA-P software (version 15.0.2, Sartorius Stedim Data Analytics AB, Umea, Sweden). Cross validations and permutation tests (100 times) were performed to evaluate the goodness of fit value and predictability of the OPLS-DA model. Volcano plots were generated using the GraphPad Prism 9.0.
oTR-induced alterations of metabolic and lipidomic profiles were analyzed using 5 NSCLC cell lines (A549, H1437, H2087, H522, and HCC827) and xenograft tumor tissues by performing GC-MS and nanoESI-MS analyses. The relative changes in identified metabolites and intact lipid species are shown as fold-changes. […]

[2] = system: A549 cells tumor xenograft; conditions: for tumor volume compared to control group: after the second treatment (day 7)
Experimental: To evaluate the anticancer effect of oTR in tumor tissues, a tumor xenograft model was established by injecting 2.5×10^6 A549 cells into the flanks of nude mice (female, BALB/cSlc-nu/nu). After the tumor volume reached above 100 mm^3 after approximately 3 weeks, the mice were randomized into negative controls and experimental groups (5 mice were used per group). Mice were then injected with oTR solution into the tumor area twice a week for 3 weeks. oTR was dissolved in saline:DMSO (1:1, v/v), and 50 μL of oTR solution was injected into mice in a dose of 100 mg/kg or 150 mg/kg. […] Negative controls were injected with saline:DMSO (1:1, v/v) without oTR. Tumor volume, mouse body weight, and mouse survival were recorded twice a week before injecting oTR. Tumor length (a) and width (b) were measured using calipers and tumor volume (mm^3) was calculated by =(a×b^2)/2.
Tumor xenograft mice were treated with oTR at two doses (100 mg/kg and 150 mg/kg). The tumor volume was measured twice a week for 3 weeks to evaluate the therapeutic effects of the drug in vivo.

xenograft tumor tissues = assay: GC-MS and nanoESI-MS metabolite and lipid profiling of xenograft tumor tissues; assay type: in vivo, nude mice (female, BALB/cSlc-nu/nu)
Experimental: The tumor tissue was weighed above 25 mg, and 0.3 mL of ice-cold methanol containing 0.1% BHT was added, followed by homogenization for 1 minutes. Homogenized samples were centrifuged at 10,000×g for 15 minutes at 4° C. The supernatant corresponding to 10 mg of the tissue was used, and metabolites and lipids were extracted using modified Folch method.
as §1, §2
oTR-induced alterations of metabolic and lipidomic profiles were analyzed using 5 NSCLC cell lines (A549, H1437, H2087, H522, and HCC827) and xenograft tumor tissues by performing GC-MS and nanoESI-MS analyses. The relative changes in identified metabolites and intact lipid species are shown as fold-changes. Myo-inositol, amino acids (β-alanine, aspartate, serine, threonine, glutamate, glycine, proline, and tyrosine), organic acids (malate and lactate), pyrimidines (uracil and uridine), creatinine, hypoxanthine, and putrescine decreased in oTR-treated NSCLC cells compared to those in NSCLC cells. These metabolites were the outcomes of consistent and significant alterations in 3 NSCLC cell lines compared to those of respective controls.

[3] = both oTR groups (100 and 150 mg/kg)

## OC[C@H]1O[C@@H](n2cnc3c(NCc4ccccc4O)ncnc32)[C@H](O)[C@@H]1O [oTR, ortho topolin riboside]
H2087
  IC50: 51.4 µM and 26.1 µM
[1]; all NSCLC cell lines, oTR 10 μM, 48 hours
  lactate level: significantly decreased
[1]; oTR 10 μM, 48 hours, vs untreated NSCLC cells
  levels of myo-inositol, amino acids, organic acids (malate and lactate), pyrimidines (uracil and uridine), creatinine, hypoxanthine, putrescine: decreased
[1]; oTR-treated NSCLC cells
  PC, PE, and PS species and Cer 18:1/22:0 levels: increased
  levels of PG and PI species: decreased
[2]; 100 mg/kg vs 150 mg/kg
  dose dependence of oTR-induced changes in tumor volume: did not decrease in a dose-dependent manner
[2]; 100 mg/kg
  tumor volume compared to control group: significantly decreased
[2]; 150 mg/kg
  tumor volume compared to control group: significantly decreased
[2]; mouse, in vivo
  reduction of body weight relative to initial body weight: ≤ 5%
Xenograft tumor tissues; 100 mg/kg and 150 mg/kg
  PC, PE, PG, and PI species levels: increase
Xenograft tumor tissues; 150 mg oTR-treated group vs control
  PS species levels: increased
Xenograft tumor tissues; 150 mg/kg group vs control
  level of aspartate, ascorbate, glucose, glutamate, ornithine, phenylalanine, proline, serine, threonine: significant reduction
Xenograft tumor tissues; [3]
  citrate, ornithine, and uridine levels: significantly decreased
  β-alanine, aminomalonate, glycerol, glycine, and uracil levels: increased
